≈ marks a conversion by molar mass, not a printed value. Where a SMILES comes first, the peptide text is derived from it. Bridges are numbered along the chain shown (N, C = ends).
Assays:
[1] = tested on: P. aeruginosa ATCC 27853; assay: microbe, parasite or virus in culture; format: cell-based, Pseudomonas aeruginosa; conditions: P. aeruginosa ATCC 27853; 24-h incubation; mean of 3 replicates from 2 independent experiments
Method: (§1) Strains were obtained from American Type Culture Collection (ATCC, Manassas, VA) or the clinical isolate collection at Trideum Biosciences (Frederick, MD, USA). Bioluminescence strains of P. aeruginosa 19660, transfected with the Xen5 luciferase gene, and S. aureus ATCC® 49525™ (Wright), transfected with the Xen36 luciferase gene, were obtained from Perkin Elmer (Hopkinton, MA).
(§2) A single colony was aseptically picked from an agar overlay and released in 25–30 mL of pre-warmed trypticase soy broth in a culture flask. Each culture was incubated overnight in a 37°C incubator. […] Pathogen growth was measured by absorbance at 600 nm. Four replicas were included for each test agent concentration. […]

[2] = tested on: P. aeruginosa 6186; assay: microbe, parasite or virus in culture; format: cell-based, Pseudomonas aeruginosa; conditions: 6186, 24 h
Method: as §1, §2

[3] = tested on: P. aeruginosa ATCC 19660; assay: microbe, parasite or virus in culture; format: cell-based, Pseudomonas aeruginosa; conditions: P. aeruginosa ATCC 19660; 24-h incubation; mean of 3 replicates from 2 independent experiments
Method: as §1, §2

[4] = pooled normal human serum, 200 μg/mL, 72 h, 37°C, LC-MS/MS, triplicate
[5] = tested on: 6 hr MRSA ATCC 1556 biofilm; format: cell-based, Staphylococcus aureus; conditions: preformed (6 h) MRSA biofilm, 16 h treatment, CFU count, three technical replicates
[6] = rat plasma, 40 and 750 ng/mL, storage at −80°C, thaw at ambient temperature min 1 h, six replicates, LC-MS/MS
[7] = tested on: S. epidermis ATCC 51625; assay: microbe, parasite or virus in culture; format: cell-based, S. epidermidis; conditions: ATCC 51625, 24 h
Method: as §1, §2

[8] = tested on: E. cloacae 6053; assay: microbe, parasite or virus in culture; format: cell-based; conditions: 6053, 24 h
Method: as §1, §2

[9] = tested on: C. parapsilosis Y-1763; assay: microbe, parasite or virus in culture; format: cell-based; conditions: 24-h incubation, mean of 3 replicates from 2 independent experiments
Method: as §1, §2

[10] = tested on: E. cloacae 6054; assay: microbe, parasite or virus in culture; format: cell-based; conditions: 6054, 24 h
Method: as §1, §2

[11] = tested on: C. parapsilosis Y-1761; assay: microbe, parasite or virus in culture; format: cell-based; conditions: 24-h incubation, mean of 3 replicates from 2 independent experiments
Method: as §1, §2

[12] = tested on: mature (120 h) MRSA ATCC 1556 biofilm; format: cell-based, Staphylococcus aureus; conditions: mature (120 h) MRSA biofilm, 16 h treatment, CFU count, three technical replicates
[13] = tested on: C. albicans Y-326; format: cell-based; conditions: 24-h incubation, mean of 3 replicates from 2 independent experiments
Method: as §1, §2

[14] = tested on: C. albicans Y-6359; format: cell-based; conditions: 24-h incubation, mean of 3 replicates from 2 independent experiments
Method: as §1, §2

[15] = tested on: S. aureus ATCC 29213; assay: microbe, parasite or virus in culture; conditions: S. aureus ATCC 29213, serial passaging at sub-MIC, duplicate
Source text: The development of resistance was confirmed if the microorganism started growing at continuously higher concentrations. […] Evaluations were done in duplicate.

[16] = tested on: S. aureus B-767; assay: microbe, parasite or virus in culture; format: cell-based, Staphylococcus aureus; conditions: B-767, 24 h
Method: as §1, §2

[17] = tested on: MRSA ATCC 33592; assay: microbe, parasite or virus in culture; format: cell-based, Staphylococcus aureus; conditions: MRSA ATCC 33592; 24-h incubation; mean of 3 replicates from 2 independent experiments
Method: as §1, §2

[18] = tested on: MRSA 6381; assay: microbe, parasite or virus in culture; format: cell-based, Staphylococcus aureus; conditions: MRSA 6381; 24-h incubation; mean of 3 replicates from 2 independent experiments
Method: as §1, §2

[19] = tested on: S. aureus 6061; assay: microbe, parasite or virus in culture; format: cell-based, Staphylococcus aureus; conditions: 6061, 24 h
Method: as §1, §2

[20] = tested on: MRSA 6313; assay: microbe, parasite or virus in culture; format: cell-based, Staphylococcus aureus; conditions: MRSA 6313; 24-h incubation; mean of 3 replicates from 2 independent experiments
Method: as §1, §2

[21] = tested on: A. baumannii 6838; assay: microbe, parasite or virus in culture; format: cell-based, Acinetobacter baumannii; conditions: 6838, 24 h
Method: as §1, §2

[22] = tested on: A. baumannii 6043; assay: microbe, parasite or virus in culture; format: cell-based, Acinetobacter baumannii; conditions: A. baumannii 6043; 24-h incubation; mean of 3 replicates from 2 independent experiments
Method: as §1, §2

[23] = tested on: A. baumannii ATCC 17978; assay: microbe, parasite or virus in culture; format: cell-based, Acinetobacter baumannii; conditions: A. baumannii ATCC 17978; 24-h incubation; mean of 3 replicates from 2 independent experiments
Method: as §1, §2

[24] = statement in discussion
[25] = tested on: human HaCaT keratinocytes; format: cell-based; conditions: 256 μg/mL
Method: (§3) Non-invasive real-time evaluation of viability, mammalian, and bacterial cells, was performed using bioluminescent human keratinocytes (HaCaT, AddexBio, San Diego, CA) and murine L929 fibroblast cells (ATCC, Manassas, VA). The bioluminescent variants were constructed by transfection with a luciferase gene (RediFect Red-Fluc-Puromycin, Catalog #CL596002) (Hamblin et al., [2003]). […] Each concentration was performed in triplicate. Bioluminescence imaging was performed at pre-specified times (0, 15, and 30 min and 1, 3, 5, 8, and 24 h) and compared to concurrently run vehicle-controls. The 96-well plate was positioned on the stage (12.5-cm field of view) within the in vivo Imaging System (IVIS) imaging system (Caliper Life Sciences, Inc., Hopkinton, MA, USA), with an open emission filter, binning of 4, and f-stop 1, and a 1-min exposure time. The resultant photons emitted from the live cells were quantified using Living Image® software (version 4.3, Caliper Life Sciences, Inc.). Monitoring bioluminescence allows assessment of the kinetics of cellular viability as there is a tight correlation between photon count imaging and viable counts (Kadurugamuwa et al., [2003]).

[26] = tested on: murine L929 fibroblast cells; assay: Fibroblast cytotoxicity, bioluminescence; format: cell-based; conditions: 64 μg/mL (maximum concentration evaluated), 24 h incubation
Method: as §3

[27] = tested on: P. aeruginosa P14 biofilm; format: cell-based, Pseudomonas aeruginosa; conditions: CFU count

**Q.** Which “Minimum Inhibitory Concentration (MIC)” value [1] does the source give for `CC[C@H](C)[C@@H]1NC(=O)CNC(=O)[C@H](CCCCN)NC(=O)[C@H](Cc2ccc(O)cc2)NC(=O)[C@@H]2CSSC[C@H](NC1=O)C(=O)N[C@@H](Cc1ccccc1)C(=O)N[C@@H](CCCCN)C(=O)N[C@@H](CCCCN)C(=O)N[C@H](C(=O)N[C@@H](CCCCN)C(N)=O)CSSC[C@H](NC(=O)[C@H](Cc1ccccc1)NC(=O)[C@@H](N)CCCNC(=N)N)C(=O)N[C@@H](Cc1c[nH]c3ccccc13)C(=O)N[C@@H](CCCCN)C(=O)N[C@@H](C(C)C)C(=O)N2` [RP557] (H-RFCWKVCYKGICFKKCK-NH2; disulfide 3-16, 7-12) here?
**A.** 2.0 [4] μM

**Q.** What about the “Minimum Inhibitory Concentration (MIC)” value [2] of the same compound?
**A.** 2.0 [4] μM

**Q.** And the “Minimum Inhibitory Concentration (MIC)” value [3]?
**A.** 2.0 [4] μM

**Q.** And the “Degradation in human serum” value [4]?
**A.** did not degrade

**Q.** What about the “EC90, biofilm CFU” value [5] of the same compound?
**A.** 6 µg/mL (≈ 2.81 µM)

**Q.** And the “Degradation after three freeze-thaw cycles” value [6]?
**A.** did not show signs of degradation

**Q.** What about the “Minimum Inhibitory Concentration (MIC)” value [7] of the same compound?
**A.** 4.0 [8] μM

**Q.** What about the “Minimum Inhibitory Concentration (MIC)” value [8] of the same compound?
**A.** 4.0 [8] μM

**Q.** And the “Minimum Inhibitory Concentration (MIC)” value [9]?
**A.** 1.0 [2] μM

**Q.** What about the “Minimum Inhibitory Concentration (MIC)” value [10] of the same compound?
**A.** 4.0 [8] μM

**Q.** And the “Minimum Inhibitory Concentration (MIC)” value [11]?
**A.** 8.0 [16] μM

**Q.** What about the “EC90 (concentration to reduce biofilm by 90%)” value [12] of the same compound?
**A.** 2 µg/mL (≈ 0.936 µM)

**Q.** What about the “Minimum Inhibitory Concentration (MIC)” value [13] of the same compound?
**A.** 8.0 [16] μM

**Q.** And the “Minimum Inhibitory Concentration (MIC)” value [14]?
**A.** 2.0 [4] μM

**Q.** What about the “MIC on Passage #0 and Passage #1” value [15] of the same compound?
**A.** 2 µg/mL (≈ 0.936 µM)

**Q.** And the “MIC on Passage #30” value [15]?
**A.** 32 µg/mL (≈ 15 µM)

**Q.** And the “Minimum Inhibitory Concentration (MIC)” value [16]?
**A.** 2.0 [4] μM

**Q.** What about the “Minimum Inhibitory Concentration (MIC)” value [17] of the same compound?
**A.** 2.0 [4] μM

**Q.** And the “Minimum Inhibitory Concentration (MIC)” value [18]?
**A.** 2.0 [4] μM

**Q.** What about the “Minimum Inhibitory Concentration (MIC)” value [19] of the same compound?
**A.** 4.0 [8] μM

**Q.** What about the “Minimum Inhibitory Concentration (MIC)” value [20] of the same compound?
**A.** 2.0 [4] μM

**Q.** And the “Minimum Inhibitory Concentration (MIC)” value [21]?
**A.** 4.0 [8] μM

**Q.** What about the “Minimum Inhibitory Concentration (MIC)” value [22] of the same compound?
**A.** 4.0 [8] μM

**Q.** What about the “Minimum Inhibitory Concentration (MIC)” value [23] of the same compound?
**A.** 8.0 [16] μM

**Q.** What about the Water solubility [24] of the same compound?
**A.** water-soluble

**Q.** And the Keratinocyte cell killing ([25]; 8 h incubation)?
**A.** no cell killing observed

**Q.** And the Keratinocyte viability ([25]; 8 h)?
**A.** greater than 80%

**Q.** What about the Fibroblast cell killing [26] of the same compound?
**A.** limited fibroblast cell killing

**Q.** And the “EC50, biofilm” value [27]?
**A.** 32 µg/mL (≈ 15 µM)
